Values joined by “and” are separate entries in the source; they are usually repeats but may differ in a detail not shown here. Equal entries are not always repeated.
Tests used:
Format in all cases: biochemical
12-LOX = target: T1, 12-LOX (Homo sapiens, UniProt P18054); assay: ABP-based ELISA assay with A549 cell lysate, 12-LOX
T1 construct: the endogenous LOXs were captured on an anti‐LOX antibody precoated 96‐well plate; endogenous in cells; host or cells: A549 cell lysate
T1 sequence (P18054 1-663): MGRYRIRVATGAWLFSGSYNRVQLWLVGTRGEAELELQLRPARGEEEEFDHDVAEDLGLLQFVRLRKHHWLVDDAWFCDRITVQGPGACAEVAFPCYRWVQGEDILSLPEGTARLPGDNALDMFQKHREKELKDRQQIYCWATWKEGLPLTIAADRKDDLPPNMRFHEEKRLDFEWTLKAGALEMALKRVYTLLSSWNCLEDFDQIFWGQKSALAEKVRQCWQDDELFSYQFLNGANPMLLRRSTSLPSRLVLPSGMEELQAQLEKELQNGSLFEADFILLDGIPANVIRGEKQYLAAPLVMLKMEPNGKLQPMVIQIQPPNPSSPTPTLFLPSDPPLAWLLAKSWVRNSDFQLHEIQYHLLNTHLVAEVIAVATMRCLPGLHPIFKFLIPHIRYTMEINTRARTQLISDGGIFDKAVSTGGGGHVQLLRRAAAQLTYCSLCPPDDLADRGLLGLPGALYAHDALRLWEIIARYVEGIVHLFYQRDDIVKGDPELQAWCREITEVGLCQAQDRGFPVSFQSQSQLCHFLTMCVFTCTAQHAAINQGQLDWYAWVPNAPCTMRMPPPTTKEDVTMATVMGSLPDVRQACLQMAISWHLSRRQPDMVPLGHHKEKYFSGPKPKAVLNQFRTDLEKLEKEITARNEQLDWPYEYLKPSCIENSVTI
Method: (§1) A549 cell lysate was treated with a serial dilution of the respective inhibitor. Subsequently, samples were labeled by treatment with 1 μM of Labelox B for 1 min. […] Data are mean±s.d., n≥3 independent experiments. […]
(§2) 1.6. Immunoblotting Analysis […]
(§3) 1.7. ABPP-based LOX inhibitor specificity validation
(§4) A549 cells were lysed by RIPA buffer supplemented with 1x PIC. After sonication and centrifugation, the supernatant was collected, and the protein concentration was determined by a Pierce BCA Protein Assay Kit (Thermo Fisher Scientific, USA). The lysates were then diluted with PBS to 300 ng/µl and stored in -20°C. To label endogenous LOXs with Labelox B under the competition condition, 180 µl diluted lysates were incubated with 200 µl different LOX inhibitor solution (in PBS) with desired concentrations for 18 min to inhibit LOXs activity. Later, 20 µl of a 20 µM Labelox B (in PBS) was added and incubated shortly for 2 min, followed by adding 50 µl of a 0.5 M EDTA to stop the labeling reaction. The reaction mixture was 450 µl in total. Inhibitors and Labelox B were absent in positive and […]
(§5) negative control, respectively. To detect the competition labeling of Labelox B among different LOXs, a high-binding 96-well plate (Greiner, #M4561) was coated with 5-LOX (#ab169755, Abcam), 12-LOX […]
(§6) (1:500 dilution in PBS) for overnight at 4°C. After washing triply with 0.05%PBST, the plate was blocked with 2% (w/v) BSA in PBST. Subsequently, 100 µl of each reaction mixture was added to the LOX-antibody-coated wells. There are four LOX antibodies used for coating. Therefore, in total, 400 µl mixture is needed for each reaction. After one hour of incubation, LOXs were pulled down by antibodies accordingly. Next, 100 µl of HRP-conjugated streptavidin (1:2000 dilution in PBS, Thermo Fisher Scientific, USA) was added to each well to detect the D04 labeled LOXs among precipitated LOXs. After washing with PBST, 100 µl of mixed HRP substrate reagent (R&D Systems, Minneapolis, USA) was added, and the colorizing reaction was stopped by adding 100 µl of 1M sulfuric acid. The absorbance at […]

15-LOX-1 [1] = target: T2, 15-LOX-1 (Homo sapiens, UniProt P16050); assay: ABP-based ELISA assay with recombinant 15-LOX-1 (inhibition of Labelox B labeling); design: His-tag (N); made in house; host or cells: E. coli BL21(DE3)
T2 sequence (P16050 1-662): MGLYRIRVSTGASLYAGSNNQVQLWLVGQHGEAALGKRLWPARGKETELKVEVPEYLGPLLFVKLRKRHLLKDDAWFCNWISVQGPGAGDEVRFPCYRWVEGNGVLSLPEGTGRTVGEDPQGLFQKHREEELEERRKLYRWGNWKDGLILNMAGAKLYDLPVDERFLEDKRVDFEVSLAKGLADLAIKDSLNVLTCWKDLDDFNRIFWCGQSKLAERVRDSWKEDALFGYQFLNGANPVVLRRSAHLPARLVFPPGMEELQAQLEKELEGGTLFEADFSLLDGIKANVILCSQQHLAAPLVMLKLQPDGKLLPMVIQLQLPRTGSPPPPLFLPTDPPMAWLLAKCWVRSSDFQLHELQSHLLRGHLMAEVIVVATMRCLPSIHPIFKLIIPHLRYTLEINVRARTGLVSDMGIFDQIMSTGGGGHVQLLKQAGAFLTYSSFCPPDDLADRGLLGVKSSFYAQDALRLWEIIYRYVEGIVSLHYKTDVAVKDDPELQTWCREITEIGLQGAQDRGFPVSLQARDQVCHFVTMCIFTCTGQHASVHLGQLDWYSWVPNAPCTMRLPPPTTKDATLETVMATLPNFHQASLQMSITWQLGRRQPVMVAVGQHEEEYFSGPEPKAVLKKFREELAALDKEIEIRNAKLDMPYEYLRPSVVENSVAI
Method: as §1, §2, §3, §4, §5
(1:500 dilution in PBS) for overnight at 4°C. After washing triply with 0.05%PBST, the plate was blocked with 2% (w/v) BSA in PBST. Subsequently, 100 µl of each reaction mixture was added to the LOX-

15-LOX-1 [2] = target: T2, 15-LOX-1; assay: ABP-based ELISA assay with A549 cell lysate, 15-LOX-1; design: the endogenous LOXs were captured on an anti‐LOX antibody precoated 96‐well plate; endogenous in cells; host or cells: A549 cell lysate
Method: as §1, §2, §3, §4, §5, §6

| SMILES | HillSlope Value (12-LOX) | IC50 (12-LOX; 1 μM Labelox B) | Hill slope (15-LOX-1 [1]) | IC50 (15-LOX-1 [1]; read-out: IC50 for attenuation of Labelox B mediated labeling) | HillSlope Value (15-LOX-1 [2]) | IC50 (15-LOX-1 [2]; 1 μM Labelox B) |
| --- | --- | --- | --- | --- | --- | --- |
| c1ccc2c(c1)SCc1c-2[nH]c2ccccc12 [PD146176] | -0.98 | ~17 µM and 19.1 µM | around 1 | ~15 µM and 15 µM | -0.93 | 17.3 µM |
| O=c1cc(-c2ccccc2)oc2cc(O)c(O)c(O)c12 [Baicalein] | -0.41 | – | lower than 1 | – | -0.47 | – |

— PMC8518382, “Identification of a Bromodomain‐like Region in 15‐Lipoxygenase‐1 Explains Its Nuclear Localization” (Angewandte Chemie (International Ed. in English), 2021)
